Test results reported in patent publication US20120196918A1, “PREVENTING ISLET INFLAMMATION AND DYSFUNCTION AND MAINTAINING PROPER GLUCOSE LEVELS BY CONTROLLING eIF5A AND ITS HYPUSINATION” (priority 2009, published 2012).

Columns and labels:
[1] = system: eIF5A; experiment: eIF5A and eIF5A-Hyp levels in islets isolated from siRNA-injected mice (immunoblot, 3H-spermidine); assay type: in vivo, mouse; details: si-eIF5A i.p. for three days
Description: To clarify this, islets were isolated from siRNA-injected mice and their function assessed in vitro. […] In order to further characterize this improvement in islet glucose responsiveness, glucose-stimulated Ca2+ mobilization (GSCa) studies were also performed. GSCa is a measure of islet glucose sensitivity that captures the dynamics of the islet glucose response, which is similar to GSIS (31). The GSCa, as measured by the change in fura-2 AM fluorescence ratio after glucose stimulation, was increased in si-eIF5A-treated islets compared to controls, reflecting the functional improvement seen in GSIS (FIG. 3D). This improved GSCa relative to controls persisted 48 and 72 hours post-isolation (data not shown). […]
Immunoblot and nitrite and iNOS assays: Whole cell extracts were resolved by electrophoresis on a 4-20% SDS-polyacrylamide gel, followed by immunoblot using anti-eIF5A1, anti-eIF5A2, anti-iNOS, anti-GFP, or anti-actin primary antibodies and fluorophore-labeled secondary antibodies. Immunoblots were visualized using the Li-Cor® Odyssey® system (Li-Cor Biosciences) and quantitated by scanning fluorometry using Odyssey Imaging v. […] Nitrite was quantitated by measuring nitric oxide-derived nitrite from INS-1 cell culture medium using the Griess reagent (Promega) according to the manufacturer's recommendations. iNOS activity was measured using a commercially available kit (Cayman). […]

[2] = system: INS-1 cells; experiment: Cell cycle analysis of INS-1 cells (propidium iodide cytometry); assay type: cell-based
Description: Because GC7 is known to be inactivated by the action amine oxidases, which are abundant in serum, typical studies with GC7 in the literature have used aminoguanidine to inhibit amine oxidases (16). […] To rule out possible adverse effects of GC7 on cell viability, quantitative 2 color fluorescence analysis of live (calcein-AM-positive) and dead (ethidium homodimer-1-positive) cells were performed using fluorescence cytometry.
For flow cytometry studies, INS-1 cells (serum starved or pretreated with GC7 as indicated in the figures) were stained with calcein-AM and ethidium homodimer 1 (Live/Dead® kit, Invitrogen) for 30 minutes, and 30,000 cells/sample were analyzed for green (living cells) and red (dead cells) fluorescence using a FACS Calibur (BD bioscience) instrument. For cell cycle analysis, 10^6 cells were washed in PBS and fixed in ice-cold 70% ethanol for 1 hour. After washing in PBS, cells were re-suspended in Guava cell cycle reagent (Millipore) and incubated at room temperature for 30 minutes. Intercalation of propidium iodide into cellular DNA was quantitated using a FACS Calibur instrument and the data analyzed for cell cycle status using Modfit software.

[3] = system: eIF5A-Hyp; experiment: New hypusine formation (3H-spermidine incorporation) in mouse islets; assay type: cell-based; details: GC7 125 μM overnight
Source text: eIF5A1 and eIF5A2 are the only proteins known to contain the unique amino acid hypusine at position 50. Hypusine is formed as a posttranslational modification of residue Lys50 in a reaction requiring spermidine and catalyzed by the sequential actions of the enzymes deoxyhypusine synthase (DHS) and deoxyhypusine hydroxylase (DOHH) (Chen, K Y, and Liu, A Y. Biochemistry and function of hypusine formation on eukaryotic initiation factor 5A. Biol Signals. 1997; 6(3):105-109). […] To further investigate the mechanism of eIF5A-regulated translation of Nos2, studies were performed following overnight incubation of cells with mimosine (an inhibitor of DOHH) and GC7 (an inhibitor of DHS). […] Similar data using GC7 were obtained in primary mouse islets (data not shown) and in human islets (FIGS. 5F and 5G). […]
Measurement of hvpusination: Approximately 100 islets or 1×10^6 INS-1 cells per condition were incubated with 1.5 μCi ^3H-spermidine (Perkin Elmer) in the presence of 1 mM aminoguanidine. […] Gels were visualized by fluorography, and bands were quantitated using Kodak Molecular Imaging Software v. […]

| Compound | reduction of eIF5A in islets [1] [%] | cell cycle progression ([2]; 3 days GC7 exposure) | cell cycle progression (G1-S) ([2]; overnight GC7, any concentration) | new hypusine formation in mouse islets [3] |
| --- | --- | --- | --- | --- |
| 5′-AACGGAAUGACUUCCAGCUGA-3′ (siSTABLE modification, further chemistry not given here) [si-eIF5A] | ~50 |  |  |  |
| NCCCCCCCN=C(N)N [GC7] |  | cell cycle block was clearly apparent | no significant effect on cell cycle progression | effectively inhibits new hypusine formation |
